Patent US6916825B2, “Alkylated imidazopyridine derivatives” (Altana Pharma AG, priority 2000, dated 2005)

How the values were obtained:
[1] = test system: acid secretion of the perfused rat stomach stimulated by pentagastrin; assay: Secretion-inhibiting action on perfused rat stomach (pentagastrin-stimulated acid secretion); assay type: in vivo; conditions: anesthetized CD rats, dose 1 μmol/kg i.v.
Excerpt: Testing of the Secretion-inhibiting Action on Perfused Rat Stomach
In table A below, the influence of the compounds according to the invention after intravenous administration is shown on the acid secretion of the perfused rat stomach stimulated by pentagastrin.
The abdomen of anesthetized rats (CD rats, female, 200-250 g; 1.5 g/kg of i.m. urethane) was opened after tracheotomy by a median upper abdominal incision and a PVC catheter was fixed transorally in the esophagus and a further one via the pylorus such that the ends of the tubing just still projected into the gastric lumen. The catheter leading from the pylorus led outwards via a side opening in the right abdominal wall.
After thorough rinsing (about 50-100 ml), a continuous flow of warm physiological NaCl solution (0.5 ml/min, pH 6.8-6.9; Braun-Unita I) was continuously passed through the stomach at 37° C. The pH in the effluent, in each case collected at an interval of 15 minutes, was determined (pH meter 632, glass electrode EA 147; φ=5 mm, Metrohm) and the secreted HCl was determined by titration with a freshly prepared 0.01 N NaOH solution to pH 7 (Dosimat 665 Metrohm).
Gastric secretion was stimulated by continuous infusion of 1 μg/kg (=1.65 ml/h) of i.v. pentagastrin (left femoral vein) about 30 min after the end of the operation (i.e. after determination of 2 preliminary fractions). The substances to be tested were administered intravenously in 1 ml/kg of fluid volume 60 min after the start of the pentagastrin continuous infusion.
The body temperature of the animals was kept at a constant 37.8-38° C. by means of infrared irradiation and heating pads (automatic, step-free control via a rectal temperature sensor).

SMILES | melting point [°C] | Inhibition of acid secretion [1] [%]
Cc1nc2c3c(ccn2c1C)C(=O)[C@@](C)(O)[C@@H](c1ccccc1)N3 [Example 1, (8S,9R)-2,3,8-Trimethyl-8-hydroxy-9-phenyl-7,8,9,10-tetrahydroimidazo[1,2-h][1,7]naphthyridin-7-one] | 240 | 
Cc1nc2c3c(ccn2c1C)[C@@H](O)[C@@](C)(O)[C@@H](c1ccccc1)N3 [Example 2, (7R,8S,9R)-2,3,8-Trimethyl-7,8-dihydroxy-9-phenyl-7,8,9,10-tetrahydroimidazo[1,2-h][1,7]naphthyridine] | 180 | 100
Cc1nc2c3c(ccn2c1C)C(=O)[C@](O)(Cc1ccccc1)[C@@H](c1ccccc1)N3 [Example 3, (8S,9R)-2,3-Dimethyl-8-benzyl-8-hydroxy-9-phenyl-7,8,9,10-tetrahydroimidazo[1,2-h][1,7]naphthyridin-7-one] | 248 to 251 | 
Cc1nc2c3c(ccn2c1C)[C@H](O)[C@](O)(Cc1ccccc1)[C@@H](c1ccccc1)N3 [Example 4, (7S,8S,9R)-2,3-Dimethyl-8-benzyl-7,8-dihydroxy-9-phenyl-7,8,9,10-tetrahydroimidazo[1,2-h][1,7]-naphthyridine] | 115 to 122 | 
CO[C@H]1c2ccn3c(C)c(C)nc3c2N[C@H](c2ccccc2)[C@]1(C)O [Example 7, (7S,8S,9R)-2,3,8-Trimethyl-7-methoxy-8-hydroxy-9-phenyl-7,8,9,10-tetrahydroimidazo[1,2-h]-[1,7]naphthyridine] | 190 | 
Cc1nc2c3c(ccn2c1C)[C@@](C)(O)[C@H](O)[C@@H](c1ccccc1)N3 [Example 8, (7R,8R,9R)-2,3,7-Trimethyl-7,8-dihydroxy-9-phenyl-7,8,9,10-tetrahydroimidazo[1,2-h][1,7]-naphthyridine] | 137 to 138 | 100
C=C1c2ccn3c(C)c(C)nc3c2N[C@H](c2ccccc2)[C@H]1O [Example 10, (8S,9R)-2,3-Dimethyl-8-hydroxy-7-methylidene-9-phenyl-7,8,9,10-tetrahydroimidazo[1,2-h][1,7]-naphthyridine] | 199 to 202 | 100
Cc1nc2c3c(ccn2c1C)[C@@](C)(O)[C@H](O)[C@@H](c1ccccc1)O3 [Example 12, (7R,8R,9R)-2,3,7-Trimethyl-7,8-dihydroxy-9-phenyl-7H-8,9-dihydropyrano[2,3-c]imidazo[1,2-a]-pyridine] |  | 100
